The record followed here is US20180289702A1, “LPA LEVEL REDUCTION FOR TREATING CENTRAL NERVOUS SYSTEM DISORDERS” (priority 2015, published 2018).

One test concerns PRG-1R346T+/− animals. Description: PPI in PRG-1R346T+/− knock-in mice. It counts as in vivo. As to conditions: monoallelic PRG-1R346T+/− animals. How it is done:
In order to investigate whether the described human mutation indeed results in a endophenotype for psychiatric disorders, the inventors produced an knock-in mouse line where the PRG-1^R346T mutated gene was introduced in place of the PRG-1 wild-type gene. Since only monoallelic PRG-1^R346T mutation carriers were detected, PRG-1^R346T+/− animals were used for the study, which correspond to the human in-vivo situation.
Animals received a single i.p. injection 3 hours prior to PPI.

Another test relates to PRG-1−/− neurons. In words: spontaneous postsynaptic currents (sPSC) with PF8380. It counts as cell-based, mice. Conditions: 1 μm.
Test [1] deals with hippocampal slices from PRG-1 KO mice. In words: evoked EPSCs in hippocampal slices. It counts as cell-based.
The subject of test [2] is PRG1−/− mice. In words: simultaneous in-vivo recordings of MEC and hippocampal CA1 in freely moving mice. How it is done: Electrophysiological measurements in freely moving animals were performed as described (O'Neill PK et al. 2013). Briefly, animals were kept during surgical procedures under isoflurane anesthesia and electrodes (WE3PT10.5F3, MicroProbes, Gaithersburg, Md., USA) were chronically implanted in the medial entorhinal cortex (MEC; 3.1 mm, lateral to the midline, 0.2 mm anterior to the transverse sinus at an angle of 6° in the anterior-to-posterior direction in the sagittal plane) and in the hippocampal CA1-region (1.5 mm lateral to the midline, 1.5 mm anterior-to-posterior and 1.2 mm dorsal-to-ventral at an angle of 0°). The electrodes were connected to an electrode interface board (EIB-16; Neuralynx, USA) and were secured to the skull using jewelers screws and dental cement. Neural data was acquired using a 16-channel head stage and a Digital Lynx data acquisition system (Neuralynx, USA). The animal's position was monitored using two light-emitting diodes mounted on the head stage. To extract local field potentials, the neural signals were bandpass filtered between 1 and 1000 Hz and digitized at 2 kHz. Separate recordings, each lasting 10 minutes, were made while animals moved freely in their home cage in an open field (0.5 m×0.5 m×0.5 m) and in a plus-maze with a length of 0.4 m per arm. Recordings were repeated for two days. Analysis of neural and behavioral data was performed using custom-written MATLAB scripts (MathWorks). Recording location was verified by current application at the end of the experiment after which animals were perfused, and the brains were cut on a vibratome and Nissl stained using cresyl violet.
Coherence of neuronal activity between the MEC and in the CA1 was computed using the multitaper method (MATLAB routines provided by K. Harris, University College London, London, UK, and G. Buzsáki, New York University, New York, N.Y., USA). […] Power was calculated by taking the absolute value of the wavelet transform and averaged across time to obtain the power spectrum. […]

For test [3], the system named is PRG1−/− mice. In words: Morris water maze. It counts as in vivo. Conditions: untreated and PF8380-treated PRG1−/− mice, during training days. How it is done: For MWM the escape latency, swim speed, path length, and trajectory of swimming were recorded for each mouse. First, mice were trained for 5 days in “visible platform” task, than for 6 days in “hidden platform” task (spatial training), followed by a “probe trial”, which was repeated for 4 times. Mice received daily 4 trials for a maximum of 90 s with an intertrial interval of 5 min. The swim velocity (mean and max) and the immobility time (time spend not searching) were measured.

The next test has as its system mice. Description: open field locomotion of food deprived animals. It counts as in vivo. Conditions: OF 10 min; controls, food deprived controls and food deprived animals treated with PF8380.

Each structure is given as a SMILES string.

On to `O=C(CCN1CCN(C(=O)OCc2cc(Cl)cc(Cl)c2)CC1)c1ccc2[nH]c(=O)oc2c1` [PF8380, 4-[3-(2,3-Dihydro-2-oxo-6-benzoxazolyl)-3-oxopropyl]-1-piperazinecarboxylic acid (3,5-dichlorophenyl)methyl ester], for which the “Pre Pulse Inhibition (PPI)” value in the test with PRG-1R346T+/− animals is reported as “rescue the decreased PPI to WT values”. Also, in the test with PRG-1−/− neurons, the sPSC amplitude entry is “not affecting” and the “spontaneous postsynaptic currents (sPSC)” value is reported as “significantly reduced”. In addition, in test [1], the PPR entry is given as “increased”; the “evoked potentials (eEPSC, first stimulus)” value was “significantly affected”; the “second stimulus applied at an interval of 50 ms” value is recorded as “did not alter”. In addition, in the test with PRG1−/− mice [2] (PF8380 treated PRG1−/− mice), the “gamma coherence between MEC and CA1” value is listed as “reduced to WT levels”. The “peak frequency of theta coherence between MEC and CA1” value in the test on PRG1−/− mice [2] (PF8380 treated PRG1−/− mice compared with WT mice) is on record as “lower”. Moreover, the “average movement speed during exploratory behavior in the open field” value in the test on PRG1−/− mice [2] (wild type, untreated and PF8380-treated PRG-1−/− mice) is recorded as “no difference”. Also, in the test with PRG1−/− mice [3], the “escape latency in the Morris-Water-Maze” value was “did not change”. Further, in the test on mice, the “locomotion in the open field, total distance” value is “did not display significant differences”.
